pIC50: −log10 of the molar value. Where two headings read alike, the source gives them in different places.
How the values were obtained:
[1] = system: Pseudomonas aeruginosa MB9798 vs MB9799
Method in brief: (§1)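 Microbroth MIC tests in PAO1-background strains with fixed imipenem and/or ceftazidime, usually at the CLSI breakpoint, plus fixed class A/C β-lactamase inhibitor against AmpC. MBL inhibitor titrated; concentration restoring susceptibility recorded and compared as fold difference between efflux+ MB9798 and efflux− MB9799.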

NDM-1 = NDM-1 (Klebsiella pneumoniae, UniProt C7C422); test: biochemical; format: biochemical; settings: fluorescence assay, CCF2-FA substrate, 1 pM enzyme, 2 hours at 25° C.; read-out: NDM-1 IC50
Method in brief: (§2)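 Enzyme activity was measured by fluorescence using CCF2-FA, a cephalosporin-linked 7-hydroxycoumarin/fluorescein substrate, with inhibitor, metallo-β-lactamase and substrate incubated together for 2 hours at 25° C. IC50 came from a 4-parameter fit of inhibition versus log inhibitor concentration.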

IMP-1 = IMP-1 (Serratia marcescens, UniProt P52699); test: biochemical; format: biochemical; settings: CCF2-FA substrate, 2 pM enzyme, 2 hours at 25° C.
Method in brief: as §2

[2] = system: Pseudomonas aeruginosa efflux− (MB9799), IMP-1; format: cell-based; settings: C, D serine β-lactamase inhibitor closely related to relebactam; for P. aeruginosa expressing IMP-1, efflux − (MB9799) MITC95: concentration restoring susceptibility to imipenem at 2 μg/mL in the presence of a class A; for Concentration of metallo-β-lactamase inhibitor which restores susceptibility of efflux − (MB9799) strain to imipenem: imipenem at 2 μg/mL, in the presence of a class A
Method in brief: as §1

[3] = system: Pseudomonas aeruginosa efflux+ (MB9798), IMP-1; format: cell-based; parameters: Concentration of metallo-β-lactamase inhibitor which restores susceptibility of efflux + (MB9798) strain to imipenem: unit not given here; settings: C, D serine β-lactamase inhibitor closely related to relebactam; for P. aeruginosa expressing IMP-1, efflux + (MB9798) MITC95: concentration restoring susceptibility to imipenem at 2 μg/mL in the presence of a class A; for Concentration of metallo-β-lactamase inhibitor which restores susceptibility of efflux + (MB9798) strain to imipenem: imipenem at 2 μg/mL, in the presence of a class A
Method in brief: as §1

[4] = system: Escherichia coli expressing NDM-1 (CLB30005, CLB30016); format: cell-based; settings: with imipenem 1 μg/ml; for Escherichia coli expressing NDM-1 (CLB30016) MITC95: 95% inhibition of bacterial growth; for Escherichia coli MITC95: NDM-1 strain, 95% inhibition of growth
Method in brief: (§3)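 Imipenem 1 μg/ml + inhibitor; MBL-expressing clinical strains in 1.1×CAMHB, inoculum from saline suspension diluted 1:100; 35° C, 22–24 h; absorbance read-out.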

[5] = system: Klebsiella pneumoniae expressing VIM-1 (IHMA599644); format: cell-based; settings: for Klebsiella pneumoniae expressing VIM-1 (IHMA599644) MITC95: with imipenem 1 μg/ml, 95% inhibition of bacterial growth; for Klebsiella pneumoniae MITC95: VIM-1 strain IHMA599644, with imipenem 1 μg/ml, 95% inhibition of growth
Method in brief: as §3

[6] = system: Serratia marcescens expressing IMP-1 (CL5741); format: cell-based; settings: for Serratia marcescens expressing IMP-1 (CL5741) MITC95: with imipenem 1 μg/ml, 95% inhibition of bacterial growth; for Serratia marcescens MITC95: IMP-1 strain CL5741, with imipenem 1 μg/ml, 95% inhibition of growth
Method in brief: as §3

VIM-1 = VIM-1 (Pseudomonas aeruginosa (strain ATCC 15692 / DSM 22644 / CIP 104116 / JCM 14847 / LMG 12228 / 1C / PRS 101 / PAO1), UniProt A0A0F7KYQ8); test: biochemical; settings: CCF2-FA substrate, 30 pM enzyme, 2 hours at 25° C.
Method in brief: as §2

[7] = ratio MITC95 PA_9798/MITC95 PA_9799
[8] = fluorescence assay, read-out: IMP-1 IC50
[9] = fold difference between efflux+ (MB9798) and efflux− (MB9799) strains, imipenem at 2 μg/mL
[10] = fluorescence assay, read-out: VIM-1 IC50

Sequence of NDM-1 (C7C422 whole entry, looked up, species assumed): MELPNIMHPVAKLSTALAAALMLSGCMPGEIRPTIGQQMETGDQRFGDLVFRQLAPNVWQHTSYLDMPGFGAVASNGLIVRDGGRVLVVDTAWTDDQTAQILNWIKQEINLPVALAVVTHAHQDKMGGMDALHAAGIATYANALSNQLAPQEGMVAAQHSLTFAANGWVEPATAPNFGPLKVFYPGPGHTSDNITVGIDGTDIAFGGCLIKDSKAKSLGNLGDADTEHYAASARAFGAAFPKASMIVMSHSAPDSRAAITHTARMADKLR
Sequence of IMP-1 (P52699 whole entry, looked up, species assumed): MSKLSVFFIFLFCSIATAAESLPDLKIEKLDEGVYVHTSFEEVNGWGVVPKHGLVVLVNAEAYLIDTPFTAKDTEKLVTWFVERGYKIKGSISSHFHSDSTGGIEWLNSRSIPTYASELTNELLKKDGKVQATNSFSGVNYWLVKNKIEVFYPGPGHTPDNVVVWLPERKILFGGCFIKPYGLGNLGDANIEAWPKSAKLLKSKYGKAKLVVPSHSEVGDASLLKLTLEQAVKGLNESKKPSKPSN

Structure (SMILES)	Efflux ratio [1, 7]	pIC50 (NDM-1)	pIC50 (IMP-1; [8])	P. aeruginosa expressing IMP-1, efflux − (MB9799) MITC95 [2] [µM]	P. aeruginosa expressing IMP-1, efflux + (MB9798) MITC95 [3] [µM]	Escherichia coli expressing NDM-1 (CLB30016) MITC95 [4] [µM]	Klebsiella pneumoniae expressing VIM-1 (IHMA599644) MITC95 [5] [µM]	Serratia marcescens expressing IMP-1 (CL5741) MITC95 [6] [µM]	pIC50 (VIM-1; VIM-1 IC50, fluorescence assay)	Efflux ratio [1, 9]	Concentration of metallo-β-lactamase inhibitor which restores susceptibility of efflux − (MB9799) strain to imipenem [2]	Concentration of metallo-β-lactamase inhibitor which restores susceptibility of efflux + (MB9798) strain to imipenem [3]	Escherichia coli MITC95 [4] [µM]	Klebsiella pneumoniae MITC95 [5] [µM]	Serratia marcescens MITC95 [6] [µM]	pIC50 (VIM-1; [10])	pIC50 (IMP-1; IMP-1 IC50, fluorescence assay)
Nc1nc2c(-c3ccc(S(=O)(=O)NCC4CCNC4)c(S(N)(=O)=O)c3-c3nnn[nH]3)cccc2s1.O=CO (stereo not drawn) [Example 120, 3-((4-(2-aminobenzo[d]thiazol-4-yl)-2-sulfamoyl-3-(1H-tetrazol-5-yl)phenylsulfonamido)methyl)pyrrolidin-1-ium formate]	0.50	10.31	9.59	1.563	0.7813	1.563	3.125	1.563	9.70								
CN(C)C(=O)CNS(=O)(=O)c1ccc(-c2cccc3sc(N)nc23)c(-c2nnn[nH]2)c1S(N)(=O)=O [Example 36, N^2-{[4-(2-amino-1,3-benzothiazol-4-yl)-2-sulfamoyl-3-(1H-tetrazol-5-yl)phenyl]sulfonyl}-N,N-dimethylglycinamide]	1.00	10.43	9.61	3.125	3.125	25	12.5	3.125	9.78								
Nc1ccc(-c2ccc(S(=O)(=O)NCC3(O)CNC3)c(S(N)(=O)=O)c2-c2nn[nH]n2)cn1 [Example 495, 4-(6-aminopyridin-3-yl)-N1-((3-hydroxyazetidin-3-yl)methyl)-3-(2H-tetrazol-5-yl)benzene-1,2-disulfonamide]		9.67	9.48							1.00	0.7813	0.7813	0.1953	1.563	0.7813	9.52	
NC[C@H]1CCN(S(=O)(=O)c2ccc(-c3cccc4sc(N)nc34)c(-c3nnn[nH]3)c2S(N)(=O)=O)C1 [Example 74, 3-(2-amino-1,3-benzothiazol-4-yl)-6-{[(3R)-3-(aminomethyl)pyrrolidin-1-yl]sulfonyl}-2-(1H-tetrazol-5-yl)benzenesulfonamide]	1.00	9.19		1.172	1.172	2.344	3.125	2.344	8.94								9.08
Nc1nc2c(-c3ccc(S(=O)(=O)N4CCC(F)(F)C4)c(S(N)(=O)=O)c3-c3nnn[nH]3)cccc2s1 [Example 43, 3-(2-amino-1,3-benzothiazol-4-yl)-6-[(3,3-difluoropyrrolidin-1-yl)sulfonyl]-2-(1H-tetrazol-5-yl)benzenesulfonamide]	63.98	8.68	8.91	1.563	100	25	100	6.25								8.73	
NCCNCCNS(=O)(=O)c1ccc(-c2ccc(N)nc2)c(-c2nn[nH]n2)c1S(N)(=O)=O [Example 482, N1-(2-(-2-amineoethylamino)ethyl)-4-(6-aminopyridin-3-yl)-3-(2H-tetrazol-5-yl)benzene-1,2-disulfonamide]		9.27	8.94						9.48	2.00	0.7813	1.563	0.1953	1.563	0.7813		
Nc1ncccc1-c1ccc(S(=O)(=O)NC[C@H]2CNCCN2)c(S(N)(=O)=O)c1-c1nn[nH]n1 [Example 316, (R)-4-(2-aminopyridin-3-yl)-N1-(piperazin-2-ylmethyl)-3-(1H-tetrazol-5-yl)benzene-1,2-disulfonamide]	2.00	9.76	8.63	1.563	3.125				9.67				0.3906	6.25	0.7813		
NC(=O)c1nc2c(-c3ccc(S(=O)(=O)N[C@H]4CCNC4)c(S(N)(=O)=O)c3-c3nn[nH]n3)cccc2[nH]1 [Example 292, (S)-4-(4-(N-(pyrrolidin-3-yl)sulfamoyl)-3-sulfamoyl-2-(2H-tetrazol-5-yl)phenyl)-1H-benzo[d]imidazole-2-carboxamide]	0.50	10.34	9.17	1.563	0.7813								1.563	3.125	3.125	9.83	
NCC(CN)NS(=O)(=O)c1ccc(-c2cccc(-c3cnc(N)[nH]3)n2)c(-c2nnn[nH]2)c1S(N)(=O)=O [Example 438, 4-(6-(2-Amino-1H-imidazol-5-yl)pyridin-2-yl)-N^1-(1,3-diaminopropan-2-yl)-3-(1H-tetrazol-5-yl)benzene-1,2-disulfonamide]		8.69	7.75						8.41	2.00	3.125	6.25	3.125	3.125	3.125		
Nc1nc2c(-c3ccc(S(=O)(=O)NCC4(CO)CC4)c(S(N)(=O)=O)c3-c3nnn[nH]3)cccc2s1 [Example 37, 4-(2-amino-1,3-benzothiazol-4-yl)-N1-{[1-(hydroxymethyl)cyclopropyl]methyl}-3-(1H-tetrazol-5-yl)benzene-1,2-disulfonamide]	1.00	11.11	9.54	6.25	6.25	12.5	12.5	3.125	9.70								
Nc1nc2c(-c3ccc(S(=O)(=O)NC4CNC4)c(S(N)(=O)=O)c3-c3nn[nH]n3)cccc2[nH]1 [Example 252, 4-(2-amino-1H-benzo[d]imidazol-4-yl)-N1-(azetidin-3-yl)-3-(2H-tetrazol-5-yl)benzene-1,2-disulfonamide]	0.68	10.37	9.18	0.6133	0.418								0.4271	0.8359	0.7383	9.83	

Reference: US10221163B2 (priority 2015, dated 2019)
